Assay results published in patent publication US20240150333A1, “TAF1 INHIBITORS” (H. LEE MOFFITT CANCER CENTER AND RESEARCH INSTITUTE, INC., priority 2020, published 2024).
Entries after “also recorded” stand apart in the source; their conditions may differ.

Key:
[1] = molecular target: T1, TAF1-T (TAF1 tandem bromodomain) (Homo sapiens, UniProt P21675); assay: Isothermal titration calorimetry (ITC); assay type: binding; settings: Table 3; 298.15 K
T1 construct: tandem bromodomain (residues 1373-1635); His6 (TEV-cleavable) (cleaved yes); host or cells: E. coli BL21 (DE3)
T1 sequence (P21675 1373-1635 isoform P21675-1): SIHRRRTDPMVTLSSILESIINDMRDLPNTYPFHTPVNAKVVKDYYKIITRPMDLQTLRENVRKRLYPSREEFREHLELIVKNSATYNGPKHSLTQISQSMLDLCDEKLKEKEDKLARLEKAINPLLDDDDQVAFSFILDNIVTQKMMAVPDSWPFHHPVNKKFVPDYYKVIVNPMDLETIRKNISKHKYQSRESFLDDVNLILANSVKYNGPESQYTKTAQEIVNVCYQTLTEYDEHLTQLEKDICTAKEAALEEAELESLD

BAZ2A = molecular target: T2, BAZ2A (Homo sapiens, UniProt Q9UIF9); assay: Bromoscan selectivity profiling (DiscoveRx); assay type: binding; settings: at 20,000 nM
T2 construct: 32 bromodomains (by DiscoveRx); purchased DiscoveRx (BromoScan service)
T2 sequence (Q9UIF9 1793-1897 limits assumed): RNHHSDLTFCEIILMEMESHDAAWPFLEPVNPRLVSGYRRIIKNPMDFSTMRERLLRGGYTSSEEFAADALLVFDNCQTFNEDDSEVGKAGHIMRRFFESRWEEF
Method: (§1) qPCR-based BRD binding assay. Another method for the determination of dissociation constants of BRD-ligand complexes is offered by DiscoveRx Corp. The assay is based on competition between test compound and immobilized high-affinity ligand for binding to the KAc site of BRDs. The amount of TAF1 remaining on an immobilized high-affinity ligand in the presence of ligand is measured using a quantitative real-time polymerase chain reaction (qPCR) method that detects the associated DNA label tagged to the BRD.
(§2) Inhibitor selectivity assays To assess target selectivity, compounds with highest biochemical and cellular activities can be profiled against panels of BRDs and kinases using the services of DiscoveRx and/or Reaction biology, as we have done previously.

TAF1L(2) = molecular target: T3, TAF1L(2) (Homo sapiens, UniProt Q8IZX4); assay: Bromoscan selectivity profiling (DiscoveRx); assay type: binding; settings: at 20,000 nM
T3 construct: purchased DiscoveRx
T3 sequence (Q8IZX4 1517-1626 limits assumed): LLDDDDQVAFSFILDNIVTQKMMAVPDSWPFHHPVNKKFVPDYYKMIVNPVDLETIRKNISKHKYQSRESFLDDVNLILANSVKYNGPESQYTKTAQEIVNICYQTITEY
Method: as §1, §2

BRD2(2) = molecular target: T4, BRD2(2) (Homo sapiens, UniProt P25440); assay: Bromoscan selectivity profiling (DiscoveRx); assay type: binding; settings: at 20,000 nM
T4 construct: 32 bromodomains (by DiscoveRx); purchased DiscoveRx (BromoScan service)
T4 sequence (P25440 344-453 limits assumed): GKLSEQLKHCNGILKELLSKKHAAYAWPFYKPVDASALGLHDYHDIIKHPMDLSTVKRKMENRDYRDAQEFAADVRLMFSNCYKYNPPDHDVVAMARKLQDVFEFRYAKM
Method: as §1, §2

SMARCA2 = molecular target: T5, SMARCA2 (Homo sapiens, UniProt P51531); assay: Bromoscan selectivity profiling (DiscoveRx); assay type: binding; settings: at 20,000 nM
T5 construct: purchased DiscoveRx
T5 sequence (P51531 1378-1506 limits assumed): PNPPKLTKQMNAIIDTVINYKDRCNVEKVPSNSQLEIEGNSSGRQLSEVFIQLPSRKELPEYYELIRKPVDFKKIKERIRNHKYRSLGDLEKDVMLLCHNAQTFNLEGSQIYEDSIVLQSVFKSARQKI
Method: as §1, §2

BRPF1 = molecular target: T6, BRPF1 (Homo sapiens, UniProt P55201); assay: Bromoscan selectivity profiling (DiscoveRx); assay type: binding; settings: at 20,000 nM
T6 construct: purchased DiscoveRx
T6 sequence (P55201 628-732 limits assumed): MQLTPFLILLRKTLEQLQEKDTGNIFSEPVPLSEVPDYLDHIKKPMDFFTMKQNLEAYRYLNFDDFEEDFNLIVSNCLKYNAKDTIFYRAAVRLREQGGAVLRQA
Method: as §1, §2

SMARCA4 = molecular target: T7, SMARCA4 (Homo sapiens, UniProt P51532); assay: Bromoscan selectivity profiling (DiscoveRx); assay type: binding; settings: at 20,000 nM
T7 construct: purchased DiscoveRx
T7 sequence (P51532 1453-1564 limits assumed): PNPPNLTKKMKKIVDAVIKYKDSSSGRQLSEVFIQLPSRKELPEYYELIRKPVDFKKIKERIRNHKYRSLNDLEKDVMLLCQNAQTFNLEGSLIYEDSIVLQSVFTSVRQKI
Method: as §1, §2

WDR9(2) = molecular target: T8, WDR9(2) (Homo sapiens, UniProt Q9NSI6); assay: Bromoscan selectivity profiling (DiscoveRx); assay type: binding; settings: at 20,000 nM
T8 construct: purchased DiscoveRx
T8 sequence (Q9NSI6 1313-1418 limits assumed): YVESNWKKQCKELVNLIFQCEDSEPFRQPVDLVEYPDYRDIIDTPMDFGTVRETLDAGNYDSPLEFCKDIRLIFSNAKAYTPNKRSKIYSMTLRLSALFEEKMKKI
Method: as §1, §2

PBRM1(2) = molecular target: T9, PBRM1(2) (Homo sapiens, UniProt Q86U86); assay: Bromoscan selectivity profiling (DiscoveRx); assay type: binding; settings: at 20,000 nM
T9 construct: PBRM1(2); purchased DiscoveRx
T9 sequence (Q86U86 177-287 limits assumed): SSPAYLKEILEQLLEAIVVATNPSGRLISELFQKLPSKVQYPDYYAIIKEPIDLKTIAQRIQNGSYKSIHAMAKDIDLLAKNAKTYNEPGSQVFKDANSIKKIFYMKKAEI
Method: as §1, §2

CREBBP = molecular target: T10, CREBBP (Homo sapiens, UniProt Q92793); assay: Bromoscan selectivity profiling (DiscoveRx); assay type: binding; settings: at 20,000 nM
T10 construct: purchased DiscoveRx
T10 sequence (Q92793 1085-1192 limits assumed): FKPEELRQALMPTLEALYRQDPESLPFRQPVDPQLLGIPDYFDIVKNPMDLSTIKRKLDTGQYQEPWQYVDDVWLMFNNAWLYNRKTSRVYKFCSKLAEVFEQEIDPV
Method: as §1, §2

BRDT(2) = molecular target: T11, BRDT(2) (Homo sapiens, UniProt Q58F21); assay: Bromoscan selectivity profiling (DiscoveRx); assay type: binding; settings: at 20,000 nM
T11 construct: BRDT(2); purchased DiscoveRx
Method: as §1, §2

FALZ = molecular target: T12, FALZ (Homo sapiens, UniProt Q12830); assay: Bromoscan selectivity profiling (DiscoveRx); assay type: binding; settings: at 20,000 nM
T12 construct: purchased DiscoveRx
Method: as §1, §2

GCN5L(2) = molecular target: T13, GCN5L(2) (Homo sapiens, UniProt Q92830); assay: Bromoscan selectivity profiling (DiscoveRx); assay type: binding; settings: at 20,000 nM
T13 construct: purchased DiscoveRx
T13 sequence (Q92830 728-832 limits assumed): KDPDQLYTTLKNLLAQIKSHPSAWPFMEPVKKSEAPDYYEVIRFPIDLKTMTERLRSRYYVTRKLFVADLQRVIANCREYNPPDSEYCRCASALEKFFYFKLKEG
Method: as §1, §2

BAZ2B = molecular target: T14, BAZ2B (Homo sapiens, UniProt Q9UIF8); assay: Bromoscan selectivity profiling (DiscoveRx); assay type: binding; settings: at 20,000 nM
T14 construct: 32 bromodomains (by DiscoveRx); purchased DiscoveRx (BromoScan service)
T14 sequence (Q9UIF8 2060-2164 limits assumed): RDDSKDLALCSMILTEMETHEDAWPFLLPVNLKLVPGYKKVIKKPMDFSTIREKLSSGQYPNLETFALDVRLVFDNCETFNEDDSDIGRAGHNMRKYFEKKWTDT
Method: as §1, §2

TRIM24(PHD, Bromo.) = molecular target: T15, TRIM24(PHD, Bromo.) (Homo sapiens, UniProt O15164); assay: Bromoscan selectivity profiling (DiscoveRx); assay type: binding; settings: at 20,000 nM
T15 construct: TRIM24(PHD, Bromo.); purchased DiscoveRx
T15 sequence (O15164 824-1006 limits assumed): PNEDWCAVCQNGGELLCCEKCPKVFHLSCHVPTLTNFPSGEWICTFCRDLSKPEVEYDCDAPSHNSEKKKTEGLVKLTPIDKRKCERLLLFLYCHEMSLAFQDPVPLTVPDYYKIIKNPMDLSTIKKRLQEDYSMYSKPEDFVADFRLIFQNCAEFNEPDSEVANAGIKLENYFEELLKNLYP
Method: as §1, §2

BRD4(1) = molecular target: T16, BRD4(1) (Homo sapiens, UniProt O60885); assay: Bromoscan selectivity profiling (DiscoveRx); assay type: binding; settings: at 20,000 nM
T16 construct: 32 bromodomains (by DiscoveRx); purchased DiscoveRx (BromoScan service)
Method: as §1, §2

BRD3(2) = molecular target: T17, BRD3(2) (Homo sapiens, UniProt Q15059); assay: Bromoscan selectivity profiling (DiscoveRx); assay type: binding; settings: at 20,000 nM
T17 construct: 32 bromodomains (by DiscoveRx); purchased DiscoveRx (BromoScan service)
T17 sequence (Q15059 306-415 limits assumed): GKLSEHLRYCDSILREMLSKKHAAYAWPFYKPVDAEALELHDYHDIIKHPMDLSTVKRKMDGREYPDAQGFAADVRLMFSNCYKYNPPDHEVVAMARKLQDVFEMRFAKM
Method: as §1, §2

BRD2(1) = molecular target: T18, BRD2(1) (Homo sapiens, UniProt P25440); assay: Bromoscan selectivity profiling (DiscoveRx); assay type: binding; settings: at 20,000 nM
T18 construct: 32 bromodomains (by DiscoveRx); purchased DiscoveRx (BromoScan service)
T18 sequence (P25440 74-180 limits assumed): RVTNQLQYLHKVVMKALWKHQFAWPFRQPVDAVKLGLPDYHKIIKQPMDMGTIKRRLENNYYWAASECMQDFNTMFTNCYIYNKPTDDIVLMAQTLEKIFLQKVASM
Method: as §1, §2

BRPF2/BRD1 = molecular target: T19, BRPF2/BRD1 (Homo sapiens, UniProt O95696); assay: Bromoscan selectivity profiling (DiscoveRx); assay type: binding; settings: at 20,000 nM
T19 construct: 32 bromodomains (by DiscoveRx); purchased DiscoveRx (BromoScan service)
T19 sequence (O95696 562-666 limits assumed): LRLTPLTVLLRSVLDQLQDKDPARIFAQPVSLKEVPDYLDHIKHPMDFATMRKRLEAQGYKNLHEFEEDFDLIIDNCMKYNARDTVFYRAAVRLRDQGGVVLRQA
Method: as §1, §2

PCAF = molecular target: T20, PCAF (Homo sapiens, UniProt Q92831); assay: Bromoscan selectivity profiling (DiscoveRx); assay type: binding; settings: at 20,000 nM
T20 construct: purchased DiscoveRx
T20 sequence (Q92831 723-827 limits assumed): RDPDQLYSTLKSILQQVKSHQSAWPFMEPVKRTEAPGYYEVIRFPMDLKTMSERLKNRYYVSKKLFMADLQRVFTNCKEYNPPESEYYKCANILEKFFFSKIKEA
Method: as §1, §2

BRD3(1) = molecular target: T21, BRD3(1) (Homo sapiens, UniProt Q15059); assay: Bromoscan selectivity profiling (DiscoveRx); assay type: binding; settings: at 20,000 nM
T21 construct: 32 bromodomains (by DiscoveRx); purchased DiscoveRx (BromoScan service)
T21 sequence (Q15059 34-140 limits assumed): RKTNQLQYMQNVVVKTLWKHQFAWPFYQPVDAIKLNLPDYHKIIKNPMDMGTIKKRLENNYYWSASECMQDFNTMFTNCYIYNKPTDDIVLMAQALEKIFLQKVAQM
Method: as §1, §2

EP300 = molecular target: T22, EP300 (Homo sapiens, UniProt Q09472); assay: Bromoscan selectivity profiling (DiscoveRx); assay type: binding; settings: at 20,000 nM
T22 construct: purchased DiscoveRx
T22 sequence (Q09472 1049-1156 limits assumed): as the sequence (Q92793 1085-1192 limits assumed) above, with N47S, V73I, F93Y, A98S counted along it
Method: as §1, §2

PBRM1(5) = molecular target: T23, PBRM1(5) (Homo sapiens, UniProt Q86U86); assay: Bromoscan selectivity profiling (DiscoveRx); assay type: binding; settings: at 20,000 nM
T23 construct: PBRM1(5); purchased DiscoveRx
T23 sequence (Q86U86 653-763 limits assumed): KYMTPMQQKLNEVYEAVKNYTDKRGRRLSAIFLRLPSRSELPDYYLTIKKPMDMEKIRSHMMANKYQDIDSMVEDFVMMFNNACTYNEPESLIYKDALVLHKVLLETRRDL
Method: as §1, §2

TAF1(2) = molecular target: T24, TAF1(2) (Homo sapiens, UniProt P21675); assay: Bromoscan selectivity profiling (DiscoveRx); assay type: binding; settings: at 20,000 nM
T24 construct: purchased DiscoveRx
Method: as §1, §2

ATAD2A = molecular target: T25, ATAD2A (Homo sapiens, UniProt Q6PL18); assay: Bromoscan selectivity profiling (DiscoveRx); assay type: binding; settings: at 20,000 nM
T25 construct: 32 bromodomains (by DiscoveRx); purchased DiscoveRx (BromoScan service)
T25 sequence (Q6PL18 980-1092 limits assumed): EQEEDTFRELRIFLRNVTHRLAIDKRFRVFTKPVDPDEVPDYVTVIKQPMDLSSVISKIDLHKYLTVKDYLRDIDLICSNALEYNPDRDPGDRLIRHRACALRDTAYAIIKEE
Method: as §1, §2

BRPF3 = molecular target: T26, BRPF3 (Homo sapiens, UniProt Q9ULD4); assay: Bromoscan selectivity profiling (DiscoveRx); assay type: binding; settings: at 20,000 nM
T26 construct: purchased DiscoveRx
T26 sequence (Q9ULD4 589-693 limits assumed): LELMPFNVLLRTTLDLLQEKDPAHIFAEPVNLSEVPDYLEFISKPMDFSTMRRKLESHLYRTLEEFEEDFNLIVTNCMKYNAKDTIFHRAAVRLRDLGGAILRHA
Method: as §1, §2

BRDT(1) = molecular target: T27, BRDT(1) (Homo sapiens, UniProt Q58F21); assay: Bromoscan selectivity profiling (DiscoveRx); assay type: binding; settings: at 20,000 nM
T27 construct: BRDT(1); purchased DiscoveRx
Method: as §1, §2

BRD9 = molecular target: T28, BRD9 (Homo sapiens, UniProt Q9H8M2); assay: Bromoscan selectivity profiling (DiscoveRx); assay type: binding; settings: at 20,000 nM
T28 construct: purchased DiscoveRx
T28 sequence (Q9H8M2 136-240 limits assumed): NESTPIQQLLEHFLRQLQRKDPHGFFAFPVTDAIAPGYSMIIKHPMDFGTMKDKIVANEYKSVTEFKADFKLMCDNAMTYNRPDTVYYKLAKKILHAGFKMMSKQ
Method: as §1, §2

panel of 32 bromodomains = assay: Profiling across a panel of 32 bromodomains (DiscoveRx), overall statement; assay type: binding, human; settings: 20 μM concentration
A549 lung cancer cells = assay: p53 pathway markers by western blot in A549 cells; assay type: cell-based, human
TRIM33(PHD, Bromo.) = assay: Bromoscan selectivity profiling (DiscoveRx); assay type: binding, human; settings: at 20,000 nM
Method: as §1, §2

C[C@@H]1COCCN1c1cc(C2([S@](C)(=N)=O)CC2)nc(-c2cc[nH]c3nccc2-3)n1 [AZD6738]
ITC N (stoichiometry), TAF1-T [1]: 1.11
ITC TΔS, TAF1-T [1]: 2.26 kcal/mol
ITC ΔH, TAF1-T [1]: -5.82 kcal/mol
inhibition at 20 µM (BAZ2A): 0%
inhibition at 20 µM (TAF1L(2)): 98%
inhibition at 20 µM (BRD2(2)): 84%
inhibition at 20 µM (SMARCA2): 15%
inhibition at 20 µM (BRPF1): 11%
inhibition at 20 µM (SMARCA4): 7%
inhibition at 20 µM (WDR9(2)): 84%
inhibition at 20 µM (PBRM1(2)): 5%
inhibition at 20 µM (CREBBP): 20%
inhibition at 20 µM (BRDT(2)): 38%
inhibition at 20 µM (FALZ): 11%
inhibition at 20 µM (GCN5L(2)): 27%
inhibition at 20 µM (BAZ2B): 0%
inhibition at 20 µM (TRIM24(PHD, Bromo.)): 6%
inhibition at 20 µM (BRD4(1)): 50%
inhibition at 20 µM (BRD3(2)): 82%
inhibition at 20 µM (BRD2(1)): 46%
inhibition at 20 µM (BRPF2/BRD1): 6%
inhibition at 20 µM (PCAF): 18%
inhibition at 20 µM (BRD3(1)): 60%
inhibition at 20 µM (EP300): 36%
inhibition at 20 µM (PBRM1(5)): 0%
inhibition at 20 µM (TAF1(2)): 99.8%
inhibition at 20 µM (ATAD2A): 0%
inhibition at 20 µM (BRPF3): 20%
inhibition at 20 µM (BRDT(1)): 56%
inhibition at 20 µM (BRD9): 13%
Interaction with BRD2-2, BRD3-2, BRD4-2, CECR2 and WDR9-2 (panel of 32 bromodomains): interacted weakly; also recorded: weakly interacted
p53 and p21 levels (A549 lung cancer cells; A549, 10 μM, 24 h, western blot): modest increase
MDMX levels (A549 lung cancer cells; A549, western blot): modest effect
% Inhibition TRIM33(PHD, Bromo.) (TRIM33(PHD, Bromo.)): 0%
